Entries after “also recorded” stand apart in the source; their conditions may differ.
What was measured:
SIRT6 = SIRT6 (Homo sapiens, UniProt Q8N6T7); experiment: Inhibition of SIRT6 deacetylation of acetylated H3K56, in vitro cell free; format: biochemical
[1] = test system: other histone deacetylases (HDACs); experiment: Enzymatic activity of other histone deacetylases; format: biochemical
claudin-2 = experiment: Tight junction protein claudin-2 in a TEER model; format: cell-based, human
Text: In one TEER model, tight junction (TJ)-related proteins were investigated, and a normalisation of TJ proteins (claudin (Cldn)-1 and claudin-2) was observed.

CaCo2 cells = experiment: In vitro intestinal barrier function model (TEER, Example 2); format: cell-based, human; conditions: compared to vehicle control, after 4 h chemical challenge
Text: CaCo2 cell line is derived from human epithelial cells from the colon. They are frequently used to mimic intestinal barrier function to either look at permeability of drugs or to look at is functional resistance. For the present experiment, the CaCo2 cells were used to mimic the loss of its barrier function upon challenging the cells with [COMPOUND LEFT OUT] sulfonic acid [COMPOUND LEFT OUT] and investigate the effect of IMU-856 on this by measuring the electrical transepithelial resistance (TEER). […] For this CaCo2 cells, cultivated in a 6-well trans well plate on top of the membrane that has small pores that prevent the cells from going through but allow molecules and nutrients to pass. After 3 weeks, when the TEER is stable, the monolayer is challenged with 0.25% [COMPOUND LEFT OUT] stimulation for 4 h. Then, cells were washed and fresh medium with vehicle or IMU-856 was given. TEER was measured before and after challenge at different time points. For correct measurement, the shorter electrode is inserted into the transwell chamber (without touching the cells), and the longer electrode is inserted in the outer well.

healthy subjects = experiment: Phase I safety in healthy subjects (Parts A and B); format: in vivo, human
Description: (§1) In Part A, healthy subjects were randomised to single ascending doses of IMU-856 (10 mg to 160 mg) or placebo. In Part B healthy subjects were randomised to multiple once-daily doses of IMU-856 (40, 80, and 160 mg) or placebo for 14 days. Part C randomised patients with celiac disease who were on a gluten-free diet to multiple once-daily doses of IMU-856 (80 mg and 160 mg) or placebo for 28 days; a once-daily gluten challenge (6 g) was introduced on Day 14 and ended on Day 28. 71 healthy subjects were enrolled in Part A and B (N=19 placebo and N=52 IMU-856) and 43 patients with CelD in Part C (N=14 placebo; N=14 for 80 mg, and N=15 for 160 mg). In Parts A and B, treatment-emergent adverse events (TEAEs) occurred in 24 (73%) and 15 (79%) of subjects receiving any dose of IMU-856 compared to 6 (50%) and 5 (71%) with placebo, respectively. […] In Part C, the most common adverse events with any dose of IMU-856 by preferred term were headache (13 [45%]), nausea (9 [31%]), diarrhoea (8 [28%]), and abdominal distension (7 [24%]). […] In Part C, the mean change in villous height from baseline to Day 29 with 80 mg and 160 mg was −20.9±34.8 μm, and −22.5±51.1 μm, respectively, and −60.3±52.2 μm with placebo. […] Mean change in plasma citrulline increased with 80 mg and 160 mg from baseline to Day 14 (2.4±6.2 and 6.1±5.9 μmol/L, respectively) and from baseline to Day 29 (2.8±7.6 and 2.2±5.3 μmol/L, respectively), but not with placebo (−2.7±5.6 and −4.0±6.5 μmol/L). […] Mean increase in zinc levels from baseline to Day 29 with 80 mg and 160 mg were 0.3±1.4 and 0.9±2.1 μmol/L compared to a mean decrease in placebo (−0.9±2.1 μmol/L). Gluten-induced symptoms were also attenuated by IMU-856.

[2] = test system: patients with celiac disease; experiment: Phase Ib safety in patients with celiac disease (Part C); format: in vivo, human
Description: as §1
(§2) FIG. 1 illustrates the flow chart of part C in celiac disease (CelD) designed as proof-of-concept study with a gluten challenge trial. Part C was planned to include a well-controlled celiac disease patient population: The patients were 100% seronegative, indicating absence of ongoing substantial gluten exposure and was performed at sites in Australia and New Zealand. Part C was designed to assess safety, tolerability and pharmacokinetics of IMU-856 and measured also histologic changes, blood biomarkers, nutrient uptake and disease-related symptoms.

[3] = test system: patients with celiac disease; experiment: Duodenal biopsy histology with gluten challenge (villous height, Vh:Cd, Q-MARSH), Part C; format: in vivo, human; conditions: for reduction in villous height: two weeks of 6 g/day gluten challenge; for mean change in villous height: baseline to Day 29, gluten challenge 6 g/day
Description: as §1, §2

[4] = test system: patients with celiac disease; experiment: Mean corpuscular hemoglobin concentration, Part C; format: in vivo, human; conditions: Baseline to Day 29
Text: Since hemoglobin is the molecule to which oxygen attaches, MCHC is a measure of the average oxygen-carrying capacity of the red blood cells in circulating the body (https://www.verywellhealth.com/mean-cell-hemoglobin-concentration-4584155).

[5] = Part A, any single dose (10 mg to 160 mg)
[6] = Part B, any dose (40, 80, 160 mg once daily, 14 days)

Sequence of SIRT6 (Q8N6T7 whole entry): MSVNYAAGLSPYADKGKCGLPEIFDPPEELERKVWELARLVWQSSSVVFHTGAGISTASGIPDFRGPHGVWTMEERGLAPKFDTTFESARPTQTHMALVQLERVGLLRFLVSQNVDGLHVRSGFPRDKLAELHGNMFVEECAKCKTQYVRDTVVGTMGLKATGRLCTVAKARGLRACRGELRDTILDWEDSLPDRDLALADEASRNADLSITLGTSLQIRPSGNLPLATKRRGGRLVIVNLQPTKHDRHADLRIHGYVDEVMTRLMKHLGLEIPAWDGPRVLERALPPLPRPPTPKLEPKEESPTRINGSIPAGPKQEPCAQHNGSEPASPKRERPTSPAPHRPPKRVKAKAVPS

Which results are given for `Cn1c(COc2cc(C(F)(F)F)ccn2)nnc1[C@H]1CC[C@H](c2cnn([C@H]3CC[C@H](N4CC5(CCO5)C4)CC3)c2)CC1` [IMU-856, 6-(trans-4-(4-(trans-4-(4-methyl-5-(((4-(trifluoromethyl)pyridin-2-yl)oxy)methyl)-4H-1,2,4-triazol-3-yl)cyclohexyl)-1H-pyrazol-1-yl)cyclohexyl)-1-oxa-6-azaspiro[3.3]heptane]?
inhibition of deacetylase activity of SIRT6 (SIRT6): selective inhibitor of the deacetylase activity; deacetylation of H3K56 (SIRT6; in vitro cell free system): prevents the deacetylation; inhibition of enzymatic activity of other HDACs [1]: does not inhibit; claudin-2 (claudin-2): normalisation; TEER (CaCo2 cells): higher TEER; TEER recovery rate (CaCo2 cells): higher recovery rate; subjects with TEAEs (number) (healthy subjects; [5]): 24; subjects with TEAEs (percentage) (healthy subjects; [5]): 73%; serious adverse events (healthy subjects; Part B): 1; subjects with TEAEs (number) (healthy subjects; [6]): 15; subjects with TEAEs (percentage) (healthy subjects; [6]): 79%; severity of TEAEs (healthy subjects; Parts A and B): mild in severity; serious adverse events [2]: 1; abdominal distension (number) ([2]; any dose): 7; abdominal distension (percentage) ([2]; any dose): 24%; diarrhoea (number) ([2]; any dose): 8; diarrhoea (percentage) ([2]; any dose): 28%; headache (number) ([2]; any dose): 13; headache (percentage) ([2]; any dose): 45%; nausea (number) ([2]; any dose): 9; nausea (percentage) ([2]; any dose): 31%; reduction in villous height ([3]; 80 mg (N=11)): 20.9 μm; mean change in villous height ([3]; 80 mg once daily): −20.9±34.8 μm; reduction in villous height ([3]; 160 mg (N=13)): 22.5 μm; mean change in villous height ([3]; 160 mg once daily): −22.5±51.1 μm; villous height protection versus placebo ([3]; Baseline to Day 29): protects villous height as compared to placebo, reaching statistical significance; patients with improvement in one Q-MARSH category ([3]; Day 29, after gluten challenge): two and Two; Q-MARSH histological damage ([3]; change in Q-MARSH score between Baseline and Day 29): signals of preventing histological damage; mean corpuscular hemoglobin concentration (MCHC) [4]: higher mean corpuscular hemoglobin concentration; also recorded: improvement in red blood cell function

Source: patent publication US20260294885A1, “TREATMENT OF INFLAMMATORY CONDITIONS COMPRISING IMU-856” (IMMUNIC AG, priority 2023, published 2026)
